Measurements: patent publication US20230390215A1 (AgoneX Biopharmaceuticals, Inc., priority 2021, published 2023)

Assays:
[1] = system: subject suffering from migraine headaches
Method: The patch is applied to the subject's skin for 4 hours. […] The size of the patch can vary from ¼ inch by ¼ inch to 1 inch by 1 inch depending on the desired dosage to be administered.
A subject suffering from migraine headaches is administered a 2″×2″ patch with a gel concentration of 30 μg/ml over a 24 hour period.
A subject suffering from migraine headaches is administered a 2″×2″ patch with a gel concentration of 2.7 μg/ml over a 24 hour period.

[2] = system: subject suffering from Alzheimer's disease; conditions: Example 4: transdermal patch, 10 μg/mL, applied every day for two hours a day over a month
Method: A subject suffering from Alzheimer's disease is treated with a transdermal patch as described herein. […] The treatment regimen occurred over the course of a month.

Structure (SMILES): Cl.Cl.NCCc1c[nH]cn1 [histamine dihydrochloride]
- migraine events ([1]; Example 3: transdermal patch comprising 30 μg/mL, applied to skin for 4 hours during a migraine event): treated or reduced
- migraine headaches (intensity and duration) ([1]; Example 6: 2″×2″ patch, gel concentration 2.7 μg/ml, 24 hour period): reduced in both intensity and duration
- Alzheimer's disease symptoms [2]: treated or reduced
